Experimental findings from patent publication US7056506B2, “Methods for detecting and inhibiting angiogenesis” (The Regents of the University of California, priority 1998, dated 2006) are described below.

“Also recorded” adds a separate entry of the source.

The test system of test [1] is growth factor-induced angiogenesis in chick embryos. The test can be described thus: Chick CAM angiogenesis assay, systemic administration, growth factor not specified. It counts as in vivo. Particulars: chick embryo, read-out: amount inhibiting angiogenesis by 50% (converted). The source says: Ten day old embryonated chicken eggs (McIntyre Poultry; Ramona Calif.) were candled to illuminate blood vessels under the shell and an area with a minimum of small blood vessels is identified. The CAM was dropped away from the eggshell in this area by grinding a small hole in the mineralized shell and applying pressure to the underlying inner shell membrane. This procedure caused an air pocket to shift from the wide end of the egg to the identified area and forcing a circular region of the CAM approximately 2 cm in diameter to drop away from the shell. […]
Fibronectin, vitronectin and fibronectin fragments (59 pmol in a final volume of 25 μl) were applied to stimulated or unstimulated CAM's. […] Blood vessel branch points in the 5 mm filter disk area were counted at 30× magnification in a blinded fashion as a size-independent quantitative indicator of vascular sprouting in response to growth factors. […] Thus, counting of blood vessel branch points is a useful quantitative means of obtaining an angiogenic index (Brooks et al., In “Methods in Molecular Biology” (Humana Press 1999). At least ten embryos were used per treatment group. Each experiment was performed a minimum of three times.
Data was evaluated in terms of average number of blood vessel branch points per treatment group +/−standard error of measurement . […]

The next test has as its system HUVEC's. The test can be described thus: Cell migration assay on fibronectin. The class given is cell-based, human. On the procedure:
The lower side of 8 μm pore transwell inserts (Costar, Inc.) were coated with 2 μg/ml of fibronectin, collagen (Collaborative Biomedical Products; Bedford Mass.) or no protein for 1 hr and were blocked with 2% BSA in PBS for 1 hr. The inserts then were placed into 24 well culture dishes containing 500 μl migration buffer in the lower chamber. Twenty-five thousand HUVEC's in 50 μl of migration buffer (HEPES buffered M199 medium containing 1% BSA, 2 mM MgCl2, 2 mM CaCl2 and 0.2 mM MnCl2) were added to the upper chamber of duplicate inserts containing 50 μl of a solution of 50 μg/ml of anti-α5β1 function blocking antibody (NKI-SAM-1, JBS5 or IIA1), 50 μg/ml of anti-α5β1 non-function blocking antibody (HA5 or VC5), or 50 μg/ml of LM609 (an anti-αVβ3 function blocking antibody) in migration buffer, or migration buffer alone.
Cells were allowed to migrate from the upper to the lower chamber for 4 hr at 37° C. Nonmigratory cells were removed from the upper surface by wiping the upper side with an absorbant tip, and cells that had migrated to the lower side of the transwell insert were fixed for 15 min with 3.7% paraformaldehyde in PBS, then stained with a 2% crystal violet solution. After extensive water washing to remove excess crystal violet, the number of cells that had migrated were counted in three representative high power (200×) fields per insert. […]

In another test the target is T1, integrin α5β1 (Homo sapiens, UniProt P05556+P08648).
T1 construct: Integrin αVβ3 and α5β1 receptor purified from human placenta were obtained from Chemicon International; purchased Chemicon International; host or cells: purified from human placenta (natural tissue)
Kind of test: Integrin receptor ligand binding assay (biotinylated fibronectin). Conditions: fibronectin as ligand. On the procedure: Integrin αVβ3 and α5β1 receptor purified from human placenta were obtained from Chemicon International. Platelet integrin αIIbβ3 was purified from platelets according to established procedures. Receptors were coated (100 μl/well) on Costar (3590) high capacity binding plates overnight at 4° C. Coating solution was discarded and plates were washed once with blocking/binding (B/B) buffer (50 mM Tris HCl, pH 7.4, 100 mM NaCl, 2 mM CaCl, 1 mM MgCl2, 1 mM MnCl2 and 1% BSA).
One hundred ten microliters of B/B buffer was applied for 60 min at RT. Thirty μl of biotinylated extracellular matrix protein ligand (fibronectin for integrin α5β1, vitronectin for integrin αVβ3 and fibrinogen for integrin αIIbβ3) plus 50 μl of either SJ749 in B/B buffer or B/B buffer alone were added to each well, and incubated for 25 min at RT. Plates were washed twice with B/B buffer and incubated 1 hr at RT, with anti-biotin alkaline phosphatase (100 μl/well) in B/B buffer. Finally, plates were washed twice with B/B followed by the addition of 100 μl of phosphatase substrate (1.5 mg/ml). Reaction was stopped by adding 2N NaOH (25 μl/well), and the developed color was read at 405 nm.

Test [2] concerns HT29 colon carcinoma cells lacking α5β1 expression. Kind of test: Chick CAM tumor assay, HT29. The class given is in vivo. Particulars: HT29 tumors on CAM. As for the experimental part: The chick CAM tumor assay was performed by placing ten million tumor cells on the surface of a CAM, and culturing the cells for one week. The resulting tumors were excised and cut into 50 mg fragments. […] Forty-eight hours later, CAM's were excised from the egg and the number of blood vessels entering the tumors were counted (as vessel branch points).
Data was presented as mean blood vessel number per treatment group (+/− standard error of measurement). Each treatment group incorporated at least ten tumors per experiment. Representative tumors were photographed at 10× magnification. Tumors were excised from the egg and tumor weights were determined for each tumor Data was presented as mean tumor weight per treatment group (+/− standard error of measurement). Statistical analyses were performed using Student's t-test.
HT29 colon carcinoma cells lacking α5β1 expression were grown on the CAM's of 10-day old embryos. These tumor cells secrete several angiogenic growth factors, including VEGF, TGFα, TGFβ, TNFα, and IL-8 (Anzano et al., Cancer Res. 49:2898–2904 (1989); Varner et. al., supra, 1995; Ellis et al., J. Biol. Chem. 273:1052–1057 (1998)). Integrin α5β1 negative tumor cells were used to distinguish the potential anti-tumor effects from anti-vasculature effects of integrin α5β1 antagonists.

T1 sequence (P08648 42-894 limits assumed): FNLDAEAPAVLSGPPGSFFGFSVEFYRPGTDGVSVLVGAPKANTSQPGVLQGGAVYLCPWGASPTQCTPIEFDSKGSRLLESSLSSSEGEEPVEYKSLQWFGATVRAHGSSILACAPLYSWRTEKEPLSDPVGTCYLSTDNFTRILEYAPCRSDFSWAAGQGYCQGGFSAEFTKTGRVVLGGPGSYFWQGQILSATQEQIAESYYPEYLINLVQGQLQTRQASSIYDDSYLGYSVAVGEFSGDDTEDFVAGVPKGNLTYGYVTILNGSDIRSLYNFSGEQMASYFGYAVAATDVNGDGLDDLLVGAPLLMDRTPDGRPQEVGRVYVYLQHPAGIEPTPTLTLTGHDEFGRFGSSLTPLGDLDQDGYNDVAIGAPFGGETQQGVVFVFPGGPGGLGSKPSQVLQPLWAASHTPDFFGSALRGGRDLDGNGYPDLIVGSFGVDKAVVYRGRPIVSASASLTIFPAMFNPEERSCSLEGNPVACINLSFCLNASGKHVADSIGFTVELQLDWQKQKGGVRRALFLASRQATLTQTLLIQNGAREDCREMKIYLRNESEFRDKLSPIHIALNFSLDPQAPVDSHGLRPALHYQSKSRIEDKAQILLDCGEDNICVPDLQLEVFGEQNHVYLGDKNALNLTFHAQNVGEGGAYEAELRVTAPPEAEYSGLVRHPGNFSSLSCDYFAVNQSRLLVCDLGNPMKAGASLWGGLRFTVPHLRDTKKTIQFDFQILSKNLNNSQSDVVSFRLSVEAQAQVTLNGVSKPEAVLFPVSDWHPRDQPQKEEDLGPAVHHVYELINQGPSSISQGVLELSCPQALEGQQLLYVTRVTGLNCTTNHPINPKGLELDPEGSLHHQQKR
T1 sequence (P08648 895-1049 partner limits assumed): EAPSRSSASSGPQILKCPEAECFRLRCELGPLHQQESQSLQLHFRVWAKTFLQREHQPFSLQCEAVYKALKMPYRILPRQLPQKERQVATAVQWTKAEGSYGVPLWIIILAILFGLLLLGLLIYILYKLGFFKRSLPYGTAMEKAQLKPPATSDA
T1 sequence (P05556 21-798): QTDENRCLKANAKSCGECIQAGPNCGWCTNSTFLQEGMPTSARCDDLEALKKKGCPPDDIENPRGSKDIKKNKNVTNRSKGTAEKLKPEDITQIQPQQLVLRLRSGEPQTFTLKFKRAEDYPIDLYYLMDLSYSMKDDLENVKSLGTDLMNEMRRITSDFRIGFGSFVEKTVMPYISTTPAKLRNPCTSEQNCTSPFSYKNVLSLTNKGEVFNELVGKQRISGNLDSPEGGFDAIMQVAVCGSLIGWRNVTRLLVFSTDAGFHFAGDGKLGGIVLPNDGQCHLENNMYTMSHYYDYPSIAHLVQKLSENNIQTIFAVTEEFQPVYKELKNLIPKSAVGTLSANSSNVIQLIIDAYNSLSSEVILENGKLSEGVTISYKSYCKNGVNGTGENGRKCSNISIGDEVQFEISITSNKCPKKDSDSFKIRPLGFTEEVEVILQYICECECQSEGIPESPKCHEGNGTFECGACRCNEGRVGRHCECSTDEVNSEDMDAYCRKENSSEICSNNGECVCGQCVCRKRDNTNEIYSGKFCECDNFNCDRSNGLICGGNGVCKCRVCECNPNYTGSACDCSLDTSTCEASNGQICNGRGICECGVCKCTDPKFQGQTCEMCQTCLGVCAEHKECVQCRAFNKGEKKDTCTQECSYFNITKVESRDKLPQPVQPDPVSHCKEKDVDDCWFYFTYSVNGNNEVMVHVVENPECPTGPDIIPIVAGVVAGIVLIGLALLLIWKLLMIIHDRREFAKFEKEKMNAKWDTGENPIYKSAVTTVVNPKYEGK

Regarding `Cc1cc(C)c(S(=O)(=O)N[C@@H](CNC(=O)C2=NOC3(C2)CC(CNc2ccccn2)N(C(=O)OCc2ccccc2)C3)C(=O)O)c(C)c1` (stereo partly shown) [SJ749], the IC50 in test [1] was 7.5 nM. In the test with HUVEC's, the “effect on endothelial cell migration on fibronectin” value was “highly effective”. Further, on integrin α5β1, the “effect on ligand binding to α5β1” value is reported as “selectively inhibited; also recorded: interfered”. Further, in test [2], the “effect on tumor size” value is reported as “induced tumor regression”.
